From article PMC5729604, “Dual inhibitors of hepatitis C virus and hepatocellular carcinoma: design, synthesis and docking studies” (Future Science OA, 2017)
In brackets after ≈: the same amount, converted by molar mass. Several values for one entry are separate records, joined by “and”; a condition that tells them apart may be missing. Identical values can stand only once. Like-named read-outs stand apart in the source and are kept apart here. One block for each molecule: values may come before it.

Assays:
[1] = test system: human HCC cell line HepG2; test: cells; format: cell-based; settings: for IC50: Homo sapiens, HepG2, 72 h; for (LD0) HepG2 / Safe doses (100% viability of HepG2) LD0: human; for in vitro anticancer activity against HepG2, in words: IC50 <100 μg/ml potential, 100-1000 μg/ml moderate
Method: The safe compounds on RBCs (5a-g, 5i-l, 5p-r, 5v-w, 6b-g) were screened for their potential anticancer activity against human HCC cell line HepG2. HepG2 cells were exposed to the test compounds, then viability of cells was measured using neutral red uptake assay as described by Borenfreund and Puerner. This assay depends on the fact that neutral red dye can be incorporated into the lysosomes of living cells providing a quantitative assay to the cytotoxic effects. The results were interpreted to calculate both the concentration causing 50% cancer cell death (IC50) of each compound and the maximum safe concentration that cause 100% viability (LD0; to be used in the in vitro anti-HCV testing) using GraphPad InStat 3.0 software (Figure 5 & Supplementary Table 2).
HepG2 cells were routinely maintained as adherent cell cultures in RPMI-1640 medium (Lonza Group Ltd, Basel, Switzerland) supplemented with 10% fetal bovine serum (FBS; Lonza, IL, USA) at 37°C in a humidified air incubator containing 5% CO2. Cells were subcultured for 2 weeks before assay. Cell viability was assessed using trypan blue exclusion method.
HepG2 cells were washed twice in RPMI-1640 medium supplemented with 200 μM L-glutamine (Lonza) and […] 4-(2-hydroxyethyl)-1-piperazineethanesulfonic acid (HEPES) buffer (Lonza). The cells were suspended at 3 × 10^4 cells/ml in RPMI culture medium (RPMI supplemented medium and 10% FBS). The appropriate number of cells was chosen to be 3 × 10^3 cells/well (100 μl of the prepared suspension), and the cells were left to adhere on the polystyrene 96-well plates in an incubator at 37°C, 5% CO2 and 95% humidity for 24 h. The cells were washed once using RPMI supplemented medium.
A 2 mg/ml stock solution of each compound was prepared in DMF and filtered using a 0.2 μM syringe filter. The desired concentrations (20, 10, 5, 2.5 and 1.25 μg/ml) were prepared using serial dilution in a 96-well plate. Compound wells were prepared by adding 100 μl of the previously prepared concentrations to a 100 μl of HepG2 cells suspension. Parallel concentrations of the solvent were prepared to be used as controls. 5-Fluorouracil was used as a positive control. Control wells were prepared by adding 100 μl culture media to a 100 μl of HepG2 cells suspension. Blank wells contained 200 μl of culture media only (without cells or compound solution). Each set of samples was pipetted in duplicate. The plate was gently shaken, then incubated at 37°C, 5% CO2 for 72 h.
After incubation, the plate was centrifuged (2000 r.p.m. for 10 min). The media were discarded by inversion over paper towels. A working solution (100 μg/ml) of neutral red stain (Bio Basic Inc, Markham, Canada) was prepared, and 100 μl of this solution was added to each well, then the plate was gently shaken. The plate was incubated at 37°C in humidified 5% CO2 for 3 h, and then centrifuged (2000 r.p.m. for 10 min). Excess dyes were discarded, and the cells were fixed with 100 μl fixing solution (0.5% formalin with 1% calcium chloride [Sigma-Aldrich]) for 1 min. Cells were destained in 100 μl destaining solution (50% ethanol with 1% glacial acetic acid [Sigma-Aldrich]) for 5 min by shaking. The stain intensity was assayed using automated microplate reader spectrophotometer adjusted at 490 nm. Surviving cell fraction was calculated according to the following equation: [drawing 3]
The results were interpreted to calculate both the concentration causing 50% cancer cell death (IC50) of each compound and the maximum safe concentration that cause 100% viability (LD0; to be used in the in vitro anti-HCV testing) using GraphPad InStat 3.0 software.

[2] = test system: human peripheral blood mononuclear cells (PBMCs); format: cell-based; settings: 72 h
Method: The safe compounds on RBCs (5a-g, 5i-l, 5p-r, 5v-w, 6b-g) were subjected to the in vitro cytotoxicity assay on human peripheral blood mononuclear cells (PBMCs). Viability of cells was measured using neutral red uptake assay as described by Borenfreund and Puerner to determine the concentrations of each compound that were not cytotoxic. The results were interpreted to calculate both the lethal concentration that kills 50% of cells (LD50) and the maximum safe concentration that causes 100% viability (LD0) of each compound using GraphPad InStat 3.0 software (Figure 6 & Supplementary Table 3).
The PBMCs were isolated by density gradient centrifugation technique as described by Boyum. Blood samples were freshly collected into heparinized or ethylenediaminetetraacetic acid sterile tubes. Blood was diluted using equal volume of RPMI-1640 medium containing 25 mM HEPES and then layered over equal volume of Ficoll-Pague™ Plus (Fisher BioReagents™ Lymphocyte Separation Medium-LSM, PA, USA) and centrifuged (2000 r.p.m. for 30 min at acceleration and deceleration speeds zero & zero) at room temperature. The buffy mononuclear cell layer was collected using sterile Pasteur pipette into 50 ml sterile Falcon tube and washed twice in phosphate-buffered saline (Sigma-Aldrich) using centrifugation (1650 r.p.m. for 5 min). The isolated PBMCs viability was determined by hemocytometer count using the trypan blue exclusion method. The PBMCs were resuspended at 1 × 10^6 cells/ml in RPMI-1640 medium containing 25 mM HEPES supplemented with 10% heat-inactivated FBS. The appropriate number of cells was chosen to be 1 × 10^5 cells/well (100 μl of the prepared suspension).
A 2 mg/ml stock solution of each compound was prepared in DMF and filtered using a 0.2 μM syringe filter. The desired concentrations (20, 10, 5, 2.5 and 1.25 μg/ml) were prepared using serial dilution in a 96-well plate. Compound wells were prepared by adding 100 μl of the previously prepared concentrations to a suspension of 1 × 10^5 PBMCs in 100 μl culture media. Parallel concentrations of the solvent were prepared to be used as controls. Control wells were prepared by adding 100 μl culture media to a suspension of 1 × 10^5 PBMCs in 100 μl culture media. Blank wells contained 200 μl of culture media only (without cells or compound solution). Each set of samples was pipetted in duplicate. The plate was then gently shaken then incubated at 37°C, 5% CO2 for 72 h.
After incubation, neutral red assay was performed as described previously, and surviving cell fraction was calculated according to the previously mentioned equation. Also, the results were interpreted to calculate both the lethal concentration that kills 50% of cells (LD50) and the maximum safe concentration that cause 100% viability (LD0) of each compound using GraphPad InStat 3.0 software.

[3] = 72 h, neutral red, Supplementary Table 2, read-out: Anticancer (HepG2) IC50
[4] = 72 h, neutral red, Table 1, read-out: IC50 (HepG2)
[5] = 72 h, neutral red, read-out: IC50 against HepG2 cells
[6] = LD50 on normal cells / IC50 on cancer cells, larger than three = highly selective

IC50 [1, 3]: 150 µg/mL (≈ 242 µM)
Structure (SMILES): CC(=NN=C1SC(=Cc2cn(-c3ccccc3)nc2-c2ccc(Cl)cc2)C(=O)N1C1CCCCC1)c1cc2ccccc2o1 [Compound 5k, 2-[1-(Benzofuran-2-yl)ethylidenehydrazono]-5-{[3-(4-chlorophenyl)-1-phenyl-1H-pyrazol-4-yl]methylene}-3-cyclohexylthiazolidin-4-one]
(LD0) HepG2 ([1]; 72 h): 56.74 µg/mL | Safe doses (100% viability of HepG2) LD0 ([1]; 72 h): 56.74 µg/mL | (LD0) PBMCs [2]: 33.29 µg/mL | LD0 [2]: 33.29 µg/mL | LD50 [2]: 319.64 µg/mL

IC50 [1, 4]: 82.1 µg/mL (≈ 133 µM)
Structure (SMILES): COc1ccc(-c2nn(-c3ccccc3)cc2C=C2SC(=NN=C(C)c3cc4ccccc4o3)N(C3CCCCC3)C2=O)cc1 [Compound 5l, 2-[1-(Benzofuran-2-yl)ethylidenehydrazono]-5-{[3-(4-methoxyphenyl)-1-phenyl-1H-pyrazol-4-yl]methylene}-3-cyclohexylthiazolidin-4-one]
in vitro anticancer activity against HepG2, in words [1]: potential in vitro anticancer activity | Selectivity index ([1]; LD50 on PBMC / IC50 on HepG2): 0.57 | (LD0) HepG2 ([1]; 72 h): 5.11 µg/mL | Safe doses (100% viability of HepG2) LD0 ([1]; 72 h): 5.11 µg/mL | (LD0) PBMCs [2]: 8.33 µg/mL | LD0 [2]: 8.33 µg/mL | LD50 [2]: 46.89 µg/mL | LD50 (PBMCs) [2]: 46.89 µg/mL

IC50 [1, 4]: 46.5 µg/mL (≈ 75.7 µM) | IC50 [1, 5]: < 50 µg/mL
Structure (SMILES): CC(=NN=C1SC(=Cc2cn(-c3ccccc3)nc2-c2ccccc2)C(=O)N1c1ccc(Cl)cc1)c1nc2ccccc2[nH]1 [Compound 5p, 2-[1-(1H-Benzimidazole-2-yl)ethylidenehydrazono]-5-[(1,3-Diphenyl-1H-pyrazol-4-yl)methylene]-3-(4-chlorophenyl)thiazolidin-4-one]
in vitro anticancer activity against HepG2, in words [1]: potential in vitro anticancer activity | Selectivity index ([1]; LD50 on PBMC / IC50 on HepG2): 2.58 | (LD0) HepG2 ([1]; 72 h): 13.32 µg/mL | Safe doses (100% viability of HepG2) LD0 ([1]; 72 h): 13.22 µg/mL | (LD0) PBMCs [2]: 12.67 µg/mL | LD0 [2]: 12.67 µg/mL | LD50 [2]: 120.46 µg/mL | LD50 (PBMCs) [2]: 120.46 µg/mL

IC50 against HepG2 cells ([1]; 72 h, neutral red): < 100 µg/mL | IC50 [1, 4]: 35.7 µg/mL (≈ 55.1 µM) | IC50 [1, 5]: < 50 µg/mL
Structure (SMILES): CC(=NN=C1SC(=Cc2cn(-c3ccccc3)nc2-c2ccc(Cl)cc2)C(=O)N1c1ccc(Cl)cc1)c1nc2ccccc2[nH]1 [Compound 5q, 2-[1-(1H-Benzimidazole-2-yl)ethylidenehydrazono]-5-{[3-(4-chlorophenyl)-1-phenyl-1H-pyrazol-4-yl]methylene}-3-(4-chlorophenyl)thiazolidin-4-one]
IC100, concentration that killed 100% of cancer cells ([1]; HepG2, calculated with GraphPad InStat): 94.54 µg/mL and < 100 µg/mL | in vitro anticancer activity against HepG2, in words [1]: potential in vitro anticancer activity | Selectivity index [1, 6]: larger than three | (LD0) HepG2 ([1]; 72 h): 23.12 µg/mL | Safe doses (100% viability of HepG2) LD0 ([1]; 72 h): 23.12 µg/mL | (LD0) PBMCs [2]: 190.45 µg/mL | LD0 [2]: 190.45 µg/mL | LD50 [2]: 1246.96 µg/mL | LD50 (PBMCs) [2]: 1246.96 µg/mL

IC50 [1, 4]: 11 µg/mL (≈ 17.1 µM) | IC50 [1, 5]: < 50 µg/mL
Structure (SMILES): COc1ccc(-c2nn(-c3ccccc3)cc2C=C2SC(=NN=C(C)c3nc4ccccc4[nH]3)N(c3ccc(Cl)cc3)C2=O)cc1 [Compound 5r, 2-[1-(1H-Benzimidazole-2-yl)ethylidenehydrazono]-5-{[3-(4-methoxyphenyl)-1-phenyl-1H-pyrazol-4-yl]methylene}-3-(4-chlorophenyl)thiazolidin-4-one]
in vitro anticancer activity against HepG2, in words [1]: potential in vitro anticancer activity | Selectivity index ([1]; LD50 on PBMC / IC50 on HepG2): 3.99 | Selectivity index [1, 6]: larger than three | (LD0) HepG2 ([1]; 72 h): 0.18 µg/mL | Safe doses (100% viability of HepG2) LD0 ([1]; 72 h): 0.181 µg/mL | (LD0) PBMCs [2]: 7.33 µg/mL | LD0 [2]: 7.33 µg/mL | LD50 [2]: 44.00 µg/mL | LD50 (PBMCs) [2]: 44.00 µg/mL

IC50 [1, 3]: 250 µg/mL (≈ 427 µM)
Structure (SMILES): CC(=NN=C1SC(=Cc2cn(-c3ccccc3)nc2-c2ccccc2)C(=O)N1C1CCCCC1)c1nc2ccccc2[nH]1 [Compound 5v, 2-[1-(1H-Benzimidazole-2-yl)ethylidenehydrazono]-5-[(1,3-Diphenyl-1H-pyrazol-4-yl)methylene]-3-cyclohexylthiazolidin-4-one]
(LD0) HepG2 ([1]; 72 h): 30.89 µg/mL | Safe doses (100% viability of HepG2) LD0 ([1]; 72 h): 30.89 µg/mL | (LD0) PBMCs [2]: 13.85 µg/mL | LD0 [2]: 13.85 µg/mL | LD50 [2]: 43.40 µg/mL

IC50 [1, 3]: 1100 µg/mL (≈ 1770 µM)
Structure (SMILES): CC(=NN=C1SC(=Cc2cn(-c3ccccc3)nc2-c2ccc(Cl)cc2)C(=O)N1C1CCCCC1)c1nc2ccccc2[nH]1 [Compound 5w, 2-[1-(1H-Benzimidazole-2-yl)ethylidenehydrazono]-5-{[3-(4-chlorophenyl)-1-phenyl-1H-pyrazol-4-yl]methylene}-3-cyclohexylthiazolidin-4-one]
in vitro anticancer activity against HepG2, in words [1]: very weak anticancer activity | (LD0) HepG2 ([1]; 72 h): 92.40 µg/mL | Safe doses (100% viability of HepG2) LD0 ([1]; 72 h): 92.40 µg/mL | (LD0) PBMCs [2]: 16.03 µg/mL | LD0 [2]: 16.03 µg/mL | LD50 [2]: 36.28 µg/mL

IC50 [1, 3]: 354 µg/mL (≈ 689 µM)
Structure (SMILES): CC(=NN=C1SC(=C2C(=O)Nc3ccccc32)C(=O)N1c1ccc(Cl)cc1)c1cc2ccccc2o1 [Compound 6b, 2-[1-(Benzofuran-2-yl)ethylidenehydrazono]-5-(2-oxoindolin-3-ylidene)-3-(4-chlorophenyl)thiazolidin-4-one]
(LD0) HepG2 ([1]; 72 h): 11.07 µg/mL | Safe doses (100% viability of HepG2) LD0 ([1]; 72 h): 11.07 µg/mL | (LD0) PBMCs [2]: 18.18 µg/mL | LD0 [2]: 18.18 µg/mL | LD50 [2]: 61.46 µg/mL
